Source: article PMC12332157, “A preclinical study on the influence of linkers in [^68Ga]Ga-NOTA-X-RM26 radiotracers for PET imaging of GRPR expression” (EJNMMI Research, 2025)
Like-named read-outs stand apart in the source and are kept apart here. Starred links: 1 amine or outer side, 2 acyl side, 3 side chain; linkers in the order of their positions; H or OH if unused. Non-standard residues stand in square brackets, D forms with d. Residues, ends and D or L forms follow the SMILES beside them. *: point of attachment. NOTA = O=C(O)CN1CCN(CC(=O)O)CCN(CC(=O)*)CC1; Sta = CC(C)C[C@H](N)[C@@H](O)CC(=O)O; X2 = O=C(COc1cccc(CN[*:1])c1)[*:2]; X3 = O=C(COc1ccccc1CN[*:1])[*:2]

Assays:
[1] = Octanol-water distribution coefficient (LogD); format: physicochemical; details: n-octanol/PBS; n = 3; mean ± sd
Experimental: Octanol-water distribution coefficient (LogD) was determined by adding 10 pmol of radiopeptide to an Eppendorf tube containing 500 µL of phosphate-buffered saline (PBS) and 500 µL of n-octanol. Each tube was vortexed for 2 min and centrifuged at 6000 g for 5 min. Three 100 µL fractions were collected from each phase, and their radioactivity was measured.

[2] = Complex stability of 68Ga-labeled peptides in PBS or EDTA solution in PBS (iTLC); format: physicochemical; details: n = 3, mean ± sd; for remaining at 1 h, 1 µM: PBS buffer, pH 7.4, incubation at 37 °C for 1 h in PBS; for Stability in PBS with EDTA: incubation at 37 °C for 1 h in PBS with 1000-fold molar excess of EDTA, in % (unit assumed)
[3] = Biodistribution in BALB/c nu/nu mice bearing PC-3 xenografts; format: in vivo; details: female, BALB/c nu/nu, mouse, iv, total radioactivity
Experimental: Female BALB/c nu/nu mice of 18–22 g weight were used in the study. All procedures with animals were conducted in accordance with the EU Directive 2010/63/EU for animal experiments and Swedish national legislation concerning the protection of laboratory animals. The experiments were approved by the ethics committee for animal research in Uppsala (Sweden) with permit number 5.8.18–00473/2021. Animals were housed in individually ventilated cages, under a 12-h light/dark cycle with free access to food and water.
For tumor inoculation, 8·10^6 PC-3 cells in 100 µL PBS were injected subcutaneously into the right hind leg of mice. Mouse weight and tumor size were measured every 2–3 days, and tumor volume was estimated by ellipsoid approximation. A predefined humane endpoint of the experiment was either a 15% weight loss or a tumor volume of 1000 mm^3, neither of which was reached.
Four weeks after tumor cell implantation, mice were randomized and divided into 6 groups (4 animals / group): 3 of them received treatment with ^68Ga-radiolabeled peptides, while the other 3 received the same peptides in addition to 5 nmol of non-labeled NOTA-PEG2-RM26 peptide for GRPR-blocking. Peptides were injected intravenously via the tail veins at a dose of 50 pmol (700 kBq radioactivity dose).
At 2 h post injection, mice were sacrificed by overdose of Ketamine/Xylazine anesthesia, and blood was collected by heart puncture. Then, liver, spleen, lungs, pancreas, kidneys, small intestine, stomach, tail, femur bones, tumor and muscle from the opposite legs were collected, weighed, and radioactivity was measured using a Wizard 2480 gamma counter. Data are presented as percentages of injected activity per gram of tissue (%IA/g).

[4] = parameters: method as in PMID 25684649; details: same time point (2 h), 40 pmol; cited from earlier work
[5] = blood, 50 pmol, 2 h p.i., i.v., read-out: Radionuclide concentration, Blood
[6] = blood, Blockade (co-injection of NOTA-PEG2-RM26), 2 h, read-out: Radionuclide concentration, Blood
[7] = bone, 50 pmol, 2 h p.i., i.v., read-out: Radionuclide concentration, Bone
[8] = bone, Blockade (co-injection of NOTA-PEG2-RM26), 2 h, read-out: Radionuclide concentration, Bone
[9] = carcass, 50 pmol, 2 h p.i., i.v., read-out: Radionuclide quantity, Carcass
[10] = carcass, Blockade (co-injection of NOTA-PEG2-RM26), 2 h, read-out: Radionuclide quantity, Carcass
[11] = gastrointestinal tract, 50 pmol, 2 h p.i., i.v., read-out: Radionuclide quantity, Gastrointestinal tract
[12] = gastrointestinal tract, Blockade (co-injection of NOTA-PEG2-RM26), 2 h, read-out: Radionuclide quantity, Gastrointestinal tract
[13] = kidneys, 50 pmol, 2 h p.i., i.v., read-out: Radionuclide concentration, Kidneys
[14] = kidneys, Blockade (co-injection of NOTA-PEG2-RM26), 2 h, read-out: Radionuclide concentration, Kidneys
[15] = liver, 50 pmol, 2 h p.i., i.v., read-out: Radionuclide concentration, Liver
[16] = liver, Blockade (co-injection of NOTA-PEG2-RM26), 2 h, read-out: Radionuclide concentration, Liver
[17] = lungs, 50 pmol, 2 h p.i., i.v., read-out: Radionuclide concentration, Lungs
[18] = lungs, Blockade (co-injection of NOTA-PEG2-RM26), 2 h, read-out: Radionuclide concentration, Lungs
[19] = muscle, 50 pmol, 2 h p.i., i.v., read-out: Radionuclide concentration, Muscle
[20] = muscle, Blockade (co-injection of NOTA-PEG2-RM26), 2 h, read-out: Radionuclide concentration, Muscle
[21] = pancreas, 50 pmol, 2 h p.i., i.v., read-out: Radionuclide concentration, Pancreas
[22] = pancreas, Blockade (co-injection of NOTA-PEG2-RM26), 2 h, read-out: Radionuclide concentration, Pancreas
[23] = small intestine, 50 pmol, 2 h p.i., i.v., read-out: Radionuclide concentration, Small Intestines
[24] = small intestine, Blockade (co-injection of NOTA-PEG2-RM26), 2 h, read-out: Radionuclide concentration, Small Intestines
[25] = spleen, 50 pmol, 2 h p.i., i.v., read-out: Radionuclide concentration, Spleen
[26] = spleen, Blockade (co-injection of NOTA-PEG2-RM26), 2 h, read-out: Radionuclide concentration, Spleen
[27] = stomach, 50 pmol, 2 h p.i., i.v., read-out: Radionuclide concentration, Stomach
[28] = stomach, Blockade (co-injection of NOTA-PEG2-RM26), 2 h, read-out: Radionuclide concentration, Stomach
[29] = total (sum of the measured activities), 50 pmol, 2 h p.i., i.v., sum of the measured activities, read-out: Radionuclide quantity, Total
[30] = total, Blockade (co-injection of NOTA-PEG2-RM26), 2 h, read-out: Radionuclide quantity, Total
[31] = tumor (PC-3 xenograft), 50 pmol, 2 h p.i., i.v., PC-3 xenograft, read-out: Radionuclide concentration, Tumor
[32] = tumor (PC-3 xenograft), Blockade (co-injection of NOTA-PEG2-RM26), 2 h, read-out: Radionuclide concentration, Tumor

SMILES | logD [1] | remaining at 1 h, 1 µM [2] [%] | Stability in PBS with EDTA [2] | tissue uptake at 2 h [3, 5] [%ID/g] | tissue uptake at 2 h [3, 6] [%ID/g] | tissue uptake at 2 h [3, 7] [%ID/g] | tissue uptake at 2 h [3, 8] [%ID/g] | tissue uptake dose at 2 h [3, 9] [%ID] | tissue uptake dose at 2 h [3, 10] [%ID] | tissue uptake dose at 2 h [3, 11] [%ID] | tissue uptake dose at 2 h [3, 12] [%ID] | tissue uptake at 2 h [3, 13] [%ID/g] | tissue uptake at 2 h [3, 14] [%ID/g] | tissue uptake at 2 h [3, 15] [%ID/g] | tissue uptake at 2 h [3, 16] [%ID/g] | tissue uptake at 2 h [3, 17] [%ID/g] | tissue uptake at 2 h [3, 18] [%ID/g] | tissue uptake at 2 h [3, 19] [%ID/g] | tissue uptake at 2 h [3, 20] [%ID/g] | tissue uptake at 2 h [3, 21] [%ID/g] | also measured
CC(=O)N[C@@H](CCCCNC(=O)CN1CCN(CC(=O)O)CCN(CC(=O)O)CC1)C(=O)NCc1ccccc1OCC(=O)N[C@H](Cc1ccccc1)C(=O)N[C@@H](CCC(N)=O)C(=O)N[C@@H](Cc1c[nH]c2ccccc12)C(=O)N[C@@H](C)C(=O)N[C@H](C(=O)NCC(=O)N[C@@H](Cc1c[nH]cn1)C(=O)N[C@@H](CC(C)C)[C@@H](O)CC(=O)N[C@@H](CC(C)C)C(N)=O)C(C)C [[^68Ga]Ga-NOTA-oMA-RM26, metal not drawn] (Ac-K(NOTA)[X3][dF]QWAVGH[Sta]L-NH2) | -0.86 ± 0.02 | 91.7 ± 5.1 | 91.3 ± 5.2 | 0.47 ± 0.17 | 0.22 ± 0.08 | 0.34 ± 0.05 | 0.23 ± 0.03 | 2.9 ± 0.4 | 5.9 ± 2.7 | 6.5 ± 0.7 | 4.1 ± 2.1 | 6.3 ± 0.9 | 6.2 ± 1.3 | 3.5 ± 0.5 | 1.4 ± 0.4 | 5.7 ± 1.5 | 3.5 ± 2.2 | 0.16 ± 0.05 | 0.21 ± 0.09 | 21 ± 5.2 | tissue uptake at 2 h [3, 22]: 2.5 ± 0.6 %ID/g; tissue uptake at 2 h [3, 23]: 3.4 ± 1.3 %ID/g; tissue uptake at 2 h [3, 24]: 0.61 ± 0.13 %ID/g; tissue uptake at 2 h [3, 25]: 1.2 ± 0.3 %ID/g; tissue uptake at 2 h [3, 26]: 0.37 ± 0.08 %ID/g; tissue uptake at 2 h [3, 27]: 3.5 ± 0.7 %ID/g; tissue uptake at 2 h [3, 28]: 1.1 ± 0.7 %ID/g; tissue uptake dose at 2 h [3, 29]: 19.8 ± 2.6 %ID; tissue uptake dose at 2 h [3, 30]: 15.7 ± 2.9 %ID; tissue uptake at 2 h [3, 31]: 10.2 ± 2.7 %ID/g; tissue uptake at 2 h [3, 32]: 1 ± 0.4 %ID/g
CC(=O)N[C@@H](CCCCNC(=O)CN1CCN(CC(=O)O)CCN(CC(=O)O)CC1)C(=O)NCc1cccc(OCC(=O)N[C@H](Cc2ccccc2)C(=O)N[C@@H](CCC(N)=O)C(=O)N[C@@H](Cc2c[nH]c3ccccc23)C(=O)N[C@@H](C)C(=O)N[C@H](C(=O)NCC(=O)N[C@@H](Cc2c[nH]cn2)C(=O)N[C@@H](CC(C)C)[C@@H](O)CC(=O)N[C@@H](CC(C)C)C(N)=O)C(C)C)c1 [[^68Ga]Ga-NOTA-mMA-RM26, metal not drawn] (Ac-K(NOTA)[X2][dF]QWAVGH[Sta]L-NH2) | -1.21 ± 0.03 | 92.8 ± 3.3 | 90.6 ± 4.1 | 0.39 ± 0.08 | 0.42 ± 0.21 | 0.28 ± 0.06 | 0.25 ± 0.03 | 2.8 ± 0.4 | 4.6 ± 0.7 | 4 ± 0.4 | 3.1 ± 1.7 | 8.4 ± 1.4 | 7.6 ± 0.7 | 3.7 ± 1.4 | 2.2 ± 0.5 | 7.1 ± 4.2 | 3.4 ± 0.5 | 0.12 ± 0.02 | 0.12 ± 0.05 | 10.5 ± 3.8 | tissue uptake at 2 h [3, 22]: 1.7 ± 0.9 %ID/g; tissue uptake at 2 h [3, 23]: 1.7 ± 0.7 %ID/g; tissue uptake at 2 h [3, 24]: 0.91 ± 0.48 %ID/g; tissue uptake at 2 h [3, 25]: 1.1 ± 0.4 %ID/g; tissue uptake at 2 h [3, 26]: 1.1 ± 0.8 %ID/g; tissue uptake at 2 h [3, 27]: 2.5 ± 0.6 %ID/g; tissue uptake at 2 h [3, 28]: 0.77 ± 0.51 %ID/g; tissue uptake dose at 2 h [3, 29]: 16.5 ± 3.1 %ID; tissue uptake dose at 2 h [3, 30]: 12.6 ± 2 %ID; tissue uptake at 2 h [3, 31]: 12.3 ± 2.8 %ID/g; tissue uptake at 2 h [3, 32]: 1.8 ± 0.2 %ID/g
CC(C)C[C@H](NC(=O)C[C@H](O)[C@H](CC(C)C)NC(=O)[C@H](Cc1c[nH]cn1)NC(=O)CNC(=O)[C@@H](NC(=O)[C@H](C)NC(=O)[C@H](Cc1c[nH]c2ccccc12)NC(=O)[C@H](CCC(N)=O)NC(=O)[C@@H](Cc1ccccc1)NC(=O)COCCOCCNC(=O)CN1CCN(CC(=O)O)CCN(CC(=O)O)CC1)C(C)C)C(N)=O [[^68Ga]Ga-NOTA-PEG2-RM26, metal not drawn] | -1.43 ± 0.01 |  |  |  |  |  |  |  |  |  |  |  |  |  |  |  |  |  |  |  | accumulation in the kidneys [4]: 1.9 ± 0.3 %IA/g; accumulation in the liver [4]: 1 ± 0.1 %IA/g; accumulation in the lungs [4]: 0.17 ± 0.03 %IA/g; tissue uptake, pancreas [4]: 1.9 ± 0.1 %IA/g; tissue uptake, small intestine [4]: 0.6 ± 0.1 %IA/g; tissue uptake, stomach [4]: 1.4 ± 0.2 %IA/g; tissue uptake, tumor [4]: 5.4 ± 1 %IA/g
